The source of these data is patent US11254668B2, “Pyrazolo[1,5-A]pyrazin-4-yl and related derivatives” (Pfizer Inc., priority 2017, dated 2022).

Molecules are shown by their SMILES. A value given as a limit tells only on which side of the number the result lay.

Holding throughout (type): biochemical
In one assay the target is JAK2 (Homo sapiens (Human), UniProt O60674). Briefly: JAK Caliper Enzyme Assay at 1 mM ATP, JAK2. Summed up:
(§1)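 Inhibition is measured as reduced phosphorylation of a synthetic peptide by the recombinant human kinase domain at 1 mM ATP. Conditions give 20–30% conversion at room temperature before EDTA quench, and on-chip separation of labelled substrate and product yields percent conversion for dose–response plotting.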

A further assay addresses JAK1 (Homo sapiens (Human), UniProt P23458). Briefly: JAK Caliper Enzyme Assay at 1 mM ATP, JAK1. Summed up:
(§2)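 Recombinant human kinase domains phosphorylated a fluorescent synthetic peptide at room temperature, with enzyme level and time tuned to 20% to 30% conversion; EDTA stop buffer ended reactions. Mobility-shift separation gave percent product from peak heights, normalised to DMSO and positive controls, and IC50s came from concentration–effect curves.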

The target of the next assay is TYK2 (Homo sapiens (Human), UniProt P29597). Briefly: JAK Caliper Enzyme Assay at 1 mM ATP, TYK2. Summed up: as §1
Sequence of TYK2 (P29597 897-1176): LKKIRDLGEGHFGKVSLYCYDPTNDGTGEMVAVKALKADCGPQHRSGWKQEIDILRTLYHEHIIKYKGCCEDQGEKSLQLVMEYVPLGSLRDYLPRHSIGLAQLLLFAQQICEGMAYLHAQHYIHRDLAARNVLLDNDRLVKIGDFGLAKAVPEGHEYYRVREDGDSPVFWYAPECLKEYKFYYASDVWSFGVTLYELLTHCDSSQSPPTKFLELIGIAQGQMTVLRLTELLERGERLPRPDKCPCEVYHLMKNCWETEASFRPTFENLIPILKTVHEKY
The target in another assay is JAK3 (Homo sapiens (Human), UniProt P52333). In words: JAK Caliper Enzyme Assay at 1 mM ATP, JAK3. A digest of the protocol: as §2
Sequence of JAK3 (P52333 822-1111): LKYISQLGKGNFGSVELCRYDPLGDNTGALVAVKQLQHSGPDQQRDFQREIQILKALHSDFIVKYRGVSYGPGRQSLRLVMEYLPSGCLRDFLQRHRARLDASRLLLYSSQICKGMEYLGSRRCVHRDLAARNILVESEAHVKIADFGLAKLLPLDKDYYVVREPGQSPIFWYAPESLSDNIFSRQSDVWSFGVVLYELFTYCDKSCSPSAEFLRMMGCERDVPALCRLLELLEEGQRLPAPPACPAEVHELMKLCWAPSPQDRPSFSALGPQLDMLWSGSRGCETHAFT

The term IC50 denotes the midpoint of a concentration-inhibition curve.

Sequence of JAK1 (P23458 875-1153): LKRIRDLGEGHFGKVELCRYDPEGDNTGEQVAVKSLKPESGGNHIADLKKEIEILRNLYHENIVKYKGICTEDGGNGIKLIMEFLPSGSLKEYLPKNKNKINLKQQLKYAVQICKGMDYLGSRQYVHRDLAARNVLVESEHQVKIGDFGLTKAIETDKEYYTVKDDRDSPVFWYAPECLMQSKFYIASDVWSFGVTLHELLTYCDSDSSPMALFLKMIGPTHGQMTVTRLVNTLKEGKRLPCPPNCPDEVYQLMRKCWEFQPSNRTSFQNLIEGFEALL
Sequence of JAK2 (O60674 849-1124): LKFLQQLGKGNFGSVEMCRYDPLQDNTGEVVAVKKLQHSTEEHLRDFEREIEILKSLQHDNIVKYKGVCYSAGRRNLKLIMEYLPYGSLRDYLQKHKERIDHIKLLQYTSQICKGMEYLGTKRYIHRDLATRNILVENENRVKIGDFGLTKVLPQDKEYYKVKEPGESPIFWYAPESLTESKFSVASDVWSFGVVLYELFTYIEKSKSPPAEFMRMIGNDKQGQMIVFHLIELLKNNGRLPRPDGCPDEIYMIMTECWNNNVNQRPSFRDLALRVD

Consider `Cc1cc(-c2nc(-c3cc[nH]n3)cc3ncccc23)nn1[C@]1(CC#N)C[C@H](C#N)C1` [Example 268, cis-3-(cyanomethyl)-3-{5-methyl-3-[7-(1H-pyrazol-3-yl)-1,6-naphthyridin-5-yl]-1H-pyrazol-1-yl}cyclobutanecarbonitrile], for which the IC50 on JAK2 worked out at 33 nM; on JAK1 it was 81 nM; at TYK2 it was 8 nM; on JAK3, 7780 nM.

With `Cc1cc(-c2nc(-c3cc[nH]n3)cc3ncccc23)nn1[C@]1(CC#N)C[C@@H](C#N)C1` [Example 269, trans-3-(cyanomethyl)-3-{5-methyl-3-[7-(1H-pyrazol-3-yl)-1,6-naphthyridin-5-yl]-1H-pyrazol-1-yl}cyclobutanecarbonitrile], the IC50 on JAK2 was 447 nM; on JAK1 it was 1380 nM; on TYK2, 27 nM; at JAK3, over 10000 nM.

For the compound `Cc1cc(-c2nc(-c3cc(N)n(C)n3)cc3ncccc23)nn1[C@]1(CC#N)C[C@@H](C#N)C1` [Example 270, trans-3-{3-[7-(5-amino-1-methyl-1H-pyrazol-3-yl)-1,6-naphthyridin-5-yl]-5-methyl-1H-pyrazol-1-yl}-3-(cyanomethyl)cyclobutanecarbonitrile], the IC50 at JAK2 was 574 nM; on JAK1, 6900 nM; at TYK2 it was 46 nM; on JAK3, over 10000 nM.

`Cc1cc(-c2nc(-c3cc(N)n(C)n3)cc3ncccc23)nn1[C@]1(CC#N)C[C@H](C#N)C1` [Example 271, cis-3-{3-[7-(5-amino-1-methyl-1H-pyrazol-3-yl)-1,6-naphthyridin-5-yl]-5-methyl-1H-pyrazol-1-yl}-3-(cyanomethyl)cyclobutanecarbonitrile]: the 50% inhibitory concentration (IC50) on JAK2 was 46 nM; on JAK1 it was 429 nM; at TYK2, 16 nM; on JAK3 it was 7070 nM.

As for `Cc1cc(-c2nc(-c3cn[nH]c3)cc3ncccc23)nn1C1(CC#N)CN(S(C)(=O)=O)C1` [Example 272, [3-{5-methyl-3-[7-(1H-pyrazol-4-yl)-1,6-naphthyridin-5-yl]-1H-pyrazol-1-yl}-1-(methylsulfonyl)azetidin-3-yl]acetonitrile], the IC50 was 1390 nM on JAK2, 3790 nM at JAK1, 120 nM on TYK2 and over 10000 nM at JAK3.

Regarding `Cc1cc(-c2nc(-c3cn[nH]c3)cc3ncccc23)nn1[C@]1(CC#N)C[C@@H](C#N)C1` [Example 273, trans-3-(cyanomethyl)-3-{5-methyl-3-[7-(1H-pyrazol-4-yl)-1,6-naphthyridin-5-yl]-1H-pyrazol-1-yl}cyclobutanecarbonitrile], the half-maximal inhibitory concentration (IC50) on JAK2 was 311 nM; at JAK1, 786 nM; at TYK2, 49 nM; at JAK3, over 10000 nM.

Regarding `Cc1cc(-c2nc(-c3cn[nH]c3)cc3ncccc23)nn1[C@]1(CC#N)C[C@H](C#N)C1` [Example 274, cis-3-(cyanomethyl)-3-{5-methyl-3-[7-(1H-pyrazol-4-yl)-1,6-naphthyridin-5-yl]-1H-pyrazol-1-yl}cyclobutanecarbonitrile], the IC50 on JAK2 stood at 34 nM; at JAK1 it was 60 nM; on TYK2, 9 nM; on JAK3, 3360 nM.

On to `Cc1cc(-c2nc(-c3cn[nH]c3N)cc3ncccc23)nn1[C@]1(CC#N)C[C@@H](C#N)C1` [Example 275, trans-3-{3-[7-(5-amino-1H-pyrazol-4-yl)-1,6-naphthyridin-5-yl]-5-methyl-1H-pyrazol-1-yl}-3-(cyanomethyl)cyclobutanecarbonitrile], for which the IC50 at JAK2 came out at 20 nM; on JAK1 it was 38 nM; on TYK2, 13 nM; at JAK3, 2650 nM.

In the case of `Cc1cn([C@]2(CC#N)C[C@@H](C#N)C2)nc1-c1nc(-c2cn[nH]c2N)cc2ncccc12` [Example 276, trans-3-{3-[7-(5-amino-1H-pyrazol-4-yl)-1,6-naphthyridin-5-yl]-4-methyl-1H-pyrazol-1-yl}-3-(cyanomethyl)cyclobutanecarbonitrile], the IC50 on JAK2 is 947 nM; at JAK1 it was 3480 nM; on TYK2, 144 nM; on JAK3, over 10000 nM.

Turning to `Cc1cn([C@]2(CC#N)C[C@H](C#N)C2)nc1-c1nc(-c2cc(N)n(C)n2)cc2ncccc12` [Example 277, cis-3-{3-[7-(5-amino-1-methyl-1H-pyrazol-3-yl)-1,6-naphthyridin-5-yl]-4-methyl-1H-pyrazol-1-yl}-3-(cyanomethyl)cyclobutanecarbonitrile], the IC50 was 2300 nM on JAK2, over 10000 nM on JAK1, 675 nM at TYK2 and over 10000 nM on JAK3.

For `Cc1cn([C@]2(CC#N)C[C@@H](C#N)C2)nc1-c1nc(-c2cc(N)n(C)n2)cc2ncccc12` [Example 278, trans-3-{3-[7-(5-amino-1-methyl-1H-pyrazol-3-yl)-1,6-naphthyridin-5-yl]-4-methyl-1H-pyrazol-1-yl}-3-(cyanomethyl)cyclobutanecarbonitrile], the half-inhibitory concentration (IC50) at JAK2 is 9840 nM; on JAK1 it was over 10000 nM; at TYK2 it was 1430 nM; on JAK3 it was over 10000 nM.

As for `Cn1cc(-c2cc3ncccc3c(-n3ccc(C4(CC#N)CN(CC(F)(F)F)C4)n3)n2)cn1` [Example 279, [3-{1-[7-(1-methyl-1H-pyrazol-4-yl)-1,6-naphthyridin-5-yl]-1H-pyrazol-3-yl}-1-(2,2,2-trifluoroethyl)azetidin-3-yl]acetonitrile], the IC50 is 686 nM at JAK2, 6340 nM at JAK1, 194 nM on TYK2 and over 10000 nM on JAK3.

In the case of `Cn1cc(-c2cc3ncccc3c(-c3cn(C4(CC#N)CN(CC(F)(F)F)C4)nn3)n2)cn1` [Example 280, [3-{4-[7-(1-methyl-1H-pyrazol-4-yl)-1,6-naphthyridin-5-yl]-1H-1,2,3-triazol-1-yl}-1-(2,2,2-trifluoroethyl)azetidin-3-yl]acetonitrile], the IC50 at JAK2 was 28 nM; at JAK1 it was 182 nM; at TYK2, 9 nM; at JAK3 it was 3260 nM.

Regarding `CS(=O)(=O)N1CC(CC#N)(n2ncc(-c3nc(-c4cc[nH]n4)cc4ncccc34)n2)C1` [Example 281, [1-(methylsulfonyl)-3-{4-[7-(1H-pyrazol-3-yl)-1,6-naphthyridin-5-yl]-2H-1,2,3-triazol-2-yl}azetidin-3-yl]acetonitrile], the IC50 is 90 nM at JAK2, 179 nM on JAK1, 16 nM at TYK2 and over 10000 nM on JAK3.

In the case of `Cn1cc(-c2cc3ncccc3c(-c3cc(C4(CC#N)CN(CC#N)C4)no3)n2)cn1` [Example 282], the IC50 is 45 nM at JAK2, 219 nM at JAK1, 60 nM at TYK2 and over 10000 nM on JAK3.

`CS(=O)(=O)N1CC(CC#N)(n2ccc(-c3cc(-c4cc[nH]n4)cc4ncccc34)n2)C1` [Example 283, [1-(methylsulfonyl)-3-{3-[7-(1H-pyrazol-3-yl)quinolin-5-yl]-1H-pyrazol-1-yl}azetidin-3-yl]acetonitrile]: the IC50 on JAK2 is 2000 nM; at JAK1, 5670 nM; on TYK2, 176 nM; at JAK3, over 10000 nM.

As to `CS(=O)(=O)N1CC(CC#N)(n2ccc(-c3cc(-c4cn[nH]c4)cc4ncccc34)n2)C1` [Example 284, [1-(methylsulfonyl)-3-{3-[7-(1H-pyrazol-4-yl)quinolin-5-yl]-1H-pyrazol-1-yl}azetidin-3-yl]acetonitrile], the IC50 is 2500 nM on JAK2, 6830 nM on JAK1, 171 nM at TYK2 and over 10000 nM at JAK3.

With `Cn1cc(-c2cc(-c3ccn(C4(CC#N)CN(CC(F)(F)F)C4)n3)c3cccnc3c2)cn1` [Example 285, [3-{3-[7-(1-methyl-1H-pyrazol-4-yl)quinolin-5-yl]-1H-pyrazol-1-yl}-1-(2,2,2-trifluoroethyl)azetidin-3-yl]acetonitrile], the IC50 at JAK2 is 2950 nM; on JAK1 it was over 10000 nM; at TYK2, 342 nM; at JAK3, over 10000 nM.

For `Cn1cc(-c2cc(-c3ccn(C4(CC#N)CN(S(C)(=O)=O)C4)n3)c3cccnc3c2)cn1` [Example 286, [3-{3-[7-(1-methyl-1H-pyrazol-4-yl)quinolin-5-yl]-1H-pyrazol-1-yl}-1-(methylsulfonyl)azetidin-3-yl]acetonitrile], the concentration for half-maximal inhibition (IC50) at JAK2 is 1810 nM; at JAK1, over 10000 nM; at TYK2, 212 nM; at JAK3 it was over 10000 nM.

Consider `CS(=O)(=O)N1CC(CC#N)(n2ccc(-c3cc(-c4ccc(=O)[nH]c4)cc4ncccc34)n2)C1` [Example 287, [1-(methylsulfonyl)-3-{3-[7-(6-oxo-1,6-dihydropyridin-3-yl)quinolin-5-yl]-1H-pyrazol-1-yl}azetidin-3-yl]acetonitrile], for which the IC50 is 5380 nM on JAK2, over 10000 nM on JAK1, 201 nM on TYK2 and over 10000 nM at JAK3.

Turning to `CS(=O)(=O)N1CC(CC#N)(n2cc(-c3cc(-c4cc[nH]n4)cc4ncccc34)cn2)C1` [Example 288, [1-(methylsulfonyl)-3-{4-[7-(1H-pyrazol-3-yl)quinolin-5-yl]-1H-pyrazol-1-yl}azetidin-3-yl]acetonitrile], the IC50 at JAK2 was 336 nM; at JAK1, 796 nM; on TYK2, 112 nM; at JAK3, over 10000 nM.
